{"source": "patent US20090192312A1", "about": "“Brain Function-Improving Agent, and Functional Food Containing the Improving Agent” (MITSUBISHI GAS CHEMICAL COMPANY, INC., priority 2006, published 2009)", "tested_on": "Male Wistar rats", "test": "Morris water maze test of learning and memory abilities", "type": "in vivo", "conditions": "feed containing 0.02% PQQ·2Na, 21 days of breeding; one trial daily for 20 days; versus PQQ·2Na-free treatment groups; 9 animals per group", "source_text": "Male Wistar rats (9 weeks old) were bred using a feed containing 0.02% pyrroloquinoline quinone disodium salt (PQQ·2Na) or 0.3% coenzyme Q10 (CoQ10) alone or both in combination or a feed free from these compounds. From the age of 12 week old after 21 days of breeding, 9 animals per group were subjected to a test of learning and memory abilities using a Morris water maze. Specifically, the bottom of a circular pool (150 cm in diameter, 45 cm in depth) was divided into four quadrants with white lines. A circular platform was placed at the center of one of the quadrants so that it was hidden under the water. Each rat was allowed to swim from different positions of the other three quadrants having no platform, and the time until it reached the platform was measured. This test was tried once daily for a total of 20 days. The learning rate was calculated by the following equation: Learning rate (%)=100−(mean time until rat reaches the platform at the Xth trial/mean time until rat reaches the platform at the first trial)×100", "data": [{"compound": "O=C(O)c1cc(C(=O)O)c2c(n1)C(=O)C(=O)c1cc(C(=O)O)[nH]c1-2.[Na].[Na]", "note": "[PQQ·2Na, pyrroloquinoline quinone disodium salt]", "values": [{"measurement": "increasing rate of the learning rate", "value": "statistically significantly higher"}]}]}
